Test results: US10583119B2, “Compounds, compositions and methods for making the same” (Signum Biosciences, Inc., priority 2008, dated 2020)

Key:
[1] = test system: serine 129 phosphorylated alpha-synuclein; assay: Dephosphorylation assay of human alpha-synuclein by PP2A and PP1; type: biochemical; conditions: Western blot
Experimental: Dephosphorylation Assay of Human a Synuclein by PP2A and PP1. […] PP2A or PP1 (serial dilutions of 200 nM, 100 nM, 50 nM, 25 nM, 12 nM, and O nM as a negative control) were incubated with serine 129 phosphorylated alpha-synuclein in MOPS buffer. The reactions were stopped by adding 5×SDS sample buffer. Levels of phosphorylated-alpha-synuclein were assessed by western blotting using an anti-phospho-Ser 129 antibody. […] Specifically, at 200 nM concentration, PP2A dephosphorylates more than 95% of the serine 129 phosphorylated alpha-synuclein.

[2] = test system: alpha-synuclein phosphorylated at Ser129; assay: Effect of PP2A methylation on alpha-synuclein dephosphorylation; type: biochemical, human
Experimental: Concentrated samples of the methylated and unmethylated AC dimer of PP2A were each serially diluted to final concentrations of 200 nM, 100 nM, 50 nM, 25 nM, and 12 nM. A buffer sample (with 0 nM PP2A) was used as the negative control. The dephosphorylation assay and western blotting were performed as described above in Example 31 Western blots were scanned on a Storm Scanner (Molecular Dynamics) and band intensities quantified with Image Quant software. The relative phosphorylation levels were calculated with the following formula: Relative phosphorylation level (%)=Signal of Sample/Signal of Negative Control*100%. Regression curves of relative phosphorylation levels as a function of PP2A concentration were plotted, and the EC50 values for methylated and unmethylated PP2A were estimated using the SigmaPlot program. The EC50 is a measure of phosphatase activity or dephosphorylation activity of PP2A toward phosphorylated alpha-synuclein. Specifically, it is the concentration of the AC dimer required to achieve 50% dephosphorylation of phosphorylated alpha-synuclein. […] Specifically, methylation reduces the EC50 value of PP2A AC dimer from ˜60 nM to ˜20 nM.

PP2A: Protein phosphatase 2A, AC dimer (unmethylated or methylated), used as the enzyme dephosphorylating alpha-synuclein
dephosphorylation of serine 129 phosphorylated alpha-synuclein ([1]; 200 nM phosphatase): more than 95%
dephosphorylation of phosphorylated alpha-synuclein (concentration dependence) ([1]; 12-200 nM phosphatase): concentration dependent manner
EC50 ([2]; methylated AC dimer): ~20 nM
EC50 ([2]; unmethylated AC dimer): ~60 nM
